Reference: patent US20100022491A1, “4-HYDROXY-2-OXO-2,3-DIHYDRO-1,3-BENZOTHIAZOL-7YL COMPOUNDS FOR MODULATION OF B2-ADRENORECEPTOR ACTIVITY” (ASTRAZENECA AB, priority 2006, published 2010)
Structures can show the parent of a compound that is named as a salt.

Target: T1, recombinant human α1D receptor (Homo sapiens, UniProt P25100)
T1 construct: expressed in transfected cells; host or cells: HEK293
T1 sequence (P25100 1-572): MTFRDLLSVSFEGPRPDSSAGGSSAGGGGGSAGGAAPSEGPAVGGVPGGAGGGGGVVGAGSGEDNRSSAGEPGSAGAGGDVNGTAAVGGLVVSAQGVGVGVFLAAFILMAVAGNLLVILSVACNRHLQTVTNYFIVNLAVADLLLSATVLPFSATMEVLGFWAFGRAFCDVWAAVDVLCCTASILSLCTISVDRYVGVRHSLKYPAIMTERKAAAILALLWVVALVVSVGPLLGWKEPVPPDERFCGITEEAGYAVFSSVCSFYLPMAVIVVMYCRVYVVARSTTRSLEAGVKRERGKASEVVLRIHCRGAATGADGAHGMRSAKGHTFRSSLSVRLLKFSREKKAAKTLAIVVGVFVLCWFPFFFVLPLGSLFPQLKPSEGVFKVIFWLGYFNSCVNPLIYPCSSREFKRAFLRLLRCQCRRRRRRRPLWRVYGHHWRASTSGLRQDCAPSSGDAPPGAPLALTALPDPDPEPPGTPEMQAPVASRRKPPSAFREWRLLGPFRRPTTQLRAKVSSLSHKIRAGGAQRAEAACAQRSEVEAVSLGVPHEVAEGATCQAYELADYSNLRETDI
Test: Adrenergic α1D selectivity binding assay ([3H]-prazosin)
Conditions: inhibition of [3H]-prazosin (0.3 nM) binding, HEK293 membranes; for IC50: read-out: α1 bind pIC50 (converted)
In short: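 HEK293 membranes with recombinant human α1D receptor incubated 2 h at room temperature with 0.3 nM [3H]-prazosin and compound in 50 mM HEPES, 1 mM EDTA, 0.1% gelatin, pH 7.4; BMY7378 (10 μM) defined non-specific binding. Filter-bound radioactivity counted; pIC50 from four-parameter logistic fit.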

| Structure (SMILES) | IC50 [nM] | α1 bind pIC50 |
| --- | --- | --- |
| O=C(CCNCCc1ccc(Cl)c(Cl)c1)N(CCNCCc1ccc(O)c2[nH]c(=O)sc12)C1CCOCC1 [Example 24, N^3-[2-(3,4-Dichlorophenyl)ethyl]-N-(2-{[2-(4-hydroxy-2-oxo-2,3-dihydro-1,3-benzothiazol-7-yl)ethyl]amino}ethyl)-N-(tetrahydro-2H-pyran-4-yl)-β-alaninamide bis-trifluoroacetic acid salt] | 631 |  |
| C[C@H](CNCCC(=O)N(CCNCCc1ccc(O)c2[nH]c(=O)sc12)C1CCCC1)c1ccccc1 [Example 31, N-cyclopentyl-N-(2-{[2-(4-hydroxy-2-oxo-2,3-dihydro-1,3-benzothiazol-7-yl)ethyl]amino}ethyl)-N^3-[(2S)-2-phenylpropyl]-β-alaninamide bis-trifluoroacetic acid salt] | 200 |  |
| O=C(CCNCCc1cccc(F)c1)N(CCNCCc1ccc(O)c2[nH]c(=O)sc12)C1CCCCCC1 [Example 95, N-Cycloheptyl-N^3-[2-(3-fluorophenyl)ethyl]-N-(2-{[2-(4-hydroxy-2-oxo-2,3-dihydro-1,3-benzothiazol-7-yl)ethyl]amino}ethyl)-β-alaninamide dihydromide salt] |  | 6.8 |
| O=C(CCNCCc1cccc(C(F)(F)F)c1)N(CCNCCc1ccc(O)c2[nH]c(=O)sc12)C1CCCCCC1 [Example 82, N^1-Cycloheptyl-N^1-(2-{[2-(4-hydroxy-2-oxo-2,3-dihydro-1,3-benzothiazol-7-yl)ethyl]amino}ethyl)-N^3-{2-[3-(trifluoromethyl)phenyl]ethyl}-β-alaninamide bis-trifluoroacetic acid salt] | 251 |  |
| O=C(CCNCCc1ccc(Cl)c(Cl)c1)N(CCNCCc1ccc(O)c2[nH]c(=O)sc12)C1CCOCC1 [Example 94, N^3-[2-(3,4-Dichlorophenyl)ethyl]-N-(2-{[2-(4-hydroxy-2-oxo-2,3-dihydro-1,3-benzothiazol-7-yl)ethyl]amino}ethyl)-N-(tetrahydro-2H-pyran-4-yl)-β-alaninamide dihydrobromide salt] |  | 6.2 |
| O=C(CCNCCc1cccc(Cl)c1)N(CCNCCc1ccc(O)c2[nH]c(=O)sc12)C1CCOCC1 [Example 22, N^3-[2-(3-Chlorophenyl)ethyl]-N-(2-{[2-(4-hydroxy-2-oxo-2,3-dihydro-1,3-benzothiazol-7-yl)ethyl]amino}ethyl)-N-(tetrahydro-2H-pyran-4-yl)-β-alaninamide bis-trifluoroacetic acid salt] | 251 |  |
| CC(C)(CN(CCNCCc1ccc(O)c2[nH]c(=O)sc12)C(=O)CCNCCc1ccccc1)c1ccccc1 [Example 45, N^1-(2-{[2-(4-Hydroxy-2-oxo-2,3-dihydro-1,3-benzothiazol-7-yl)ethyl]amino}ethyl)-N^1-(2-methyl-2-phenylpropyl)-N^3-(2-phenylethyl)-β-alaninamide bis-trifluoroacetic acid salt] | 200 |  |
| CC(C)(C)CN(CCNCCc1ccc(O)c2[nH]c(=O)sc12)C(=O)CCNCCc1ccccc1 [Example 6, N-(2,2-Dimethylpropyl)-N-(2-{[2-(4-hydroxy-2-oxo-2,3-dihydro-1,3-benzothiazol-7-yl)ethyl]amino}ethyl)-N^3-(2-phenylethyl)-β-alaninamide bis-trifluoroacetic acid salt] | 126 |  |
| O=C(CCNC[C@H](O)c1ccccc1)N(CCNCCc1ccc(O)c2[nH]c(=O)sc12)C1CCCCC1 [Example 75, N^1-Cyclohexyl-N^1-(2-{[2-(4-hydroxy-2-oxo-2,3-dihydro-1,3-benzothiazol-7-yl)ethyl]amino}ethyl)-N^3-[(2R)-2-hydroxy-2-phenylethyl]-β-alaninamide bis-trifluoroacetic acid salt] | 251 |  |
| CCCC[C@H](C)N(CCNCCc1ccc(O)c2[nH]c(=O)sc12)C(=O)CCNCCc1ccccc1 [Example 102, N-(2-{[2-(4-Hydroxy-2-oxo-2,3-dihydro-1,3-benzothiazol-7-yl)ethyl]amino}ethyl)-N-[(1S)-1-methylpentyl]-N^3-(2-phenylethyl)-β-alaninamide bis-trifluoroacetic acid salt] | 100 |  |
| CCCC(CCC)N(CCNCCc1ccc(O)c2[nH]c(=O)sc12)C(=O)CCNCCc1ccc(F)cc1 [Example 64, N^3-[2-(4-Fluorophenyl)ethyl]-N^1-(2-{[2-(4-hydroxy-2-oxo-2,3-dihydro-1,3-benzothiazol-7-yl)ethyl]amino}ethyl)-N^1-(1-propylbutyl)-β-alaninamide bis-trifluoroacetic acid salt] | 79.4 |  |
| CC(C)(C)CN(CCNCCc1ccc(O)c2[nH]c(=O)sc12)C(=O)CCNCCc1ccc(Cl)cc1 [Example 8, N^3-[2-(4-Chlorophenyl)ethyl]-N-(2,2-dimethylpropyl)-N-(2-{[2-(4-hydroxy-2-oxo-2,3-dihydro-1,3-benzothiazol-7-yl)ethyl]amino}ethyl)-β-alaninamide bis-trifluoroacetic acid salt] | 501 |  |
| CC(CN(C(=O)CCNCCc1ccccc1)C1CCCCC1)NCCc1ccc(O)c2[nH]c(=O)sc12 (stereo not drawn) [Example 105, N-Cyclohexyl-N-(2-{[2-(4-hydroxy-2-oxo-2,3-dihydro-1,3-benzothiazol-7-yl)ethyl]amino}propyl)-N^3-(2-phenylethyl)-β-alaninamide bis-trifluoroacetic acid salt] | 79.4 |  |
| COc1cccc(CCNCCC(=O)N(CCNCCc2ccc(O)c3[nH]c(=O)sc23)CC(C)(C)C)c1 [Example 43, N^1-(2,2-Dimethylpropyl)-N^1-(2-{[2-(4-hydroxy-2-oxo-2,3-dihydro-1,3-benzothiazol-7-yl)ethyl]amino}ethyl)-N^3-[2-(3-methoxyphenyl)ethyl]-β-alaninamide bis-trifluoroacetic acid salt] | 158 |  |

The next lines start with results.

| IC50 [nM] | Structure (SMILES) | α1 bind pIC50 |
| --- | --- | --- |
| 50.1 | O=C(CCNCCc1ccc(F)cc1F)N(CCNCCc1ccc(O)c2[nH]c(=O)sc12)C1CCCCCC1 [Example 55, N^1-Cycloheptyl-N^3-[2-(2,4-difluorophenyl)ethyl]-N^1-(2-{[2-(4-hydroxy-2-oxo-2,3-dihydro-1,3-benzothiazol-7-yl)ethyl]amino}ethyl)-β-alaninamide bis-trifluoroacetic acid salt] |  |
| 200 | O=C(CCNCCc1ccc(O)cc1)N(CCNCCc1ccc(O)c2[nH]c(=O)sc12)C1CCCCC1 [Example 34, N-Cyclohexyl-N-(2-{[2-(4-hydroxy-2-oxo-2,3-dihydro-1,3-benzothiazol-7-yl)ethyl]amino}ethyl)-N^3-[2-(4-hydroxyphenyl)ethyl]-β-alaninamide bis-trifluoroacetic acid salt] |  |
| 158 | O=C(CCNCCc1cccs1)N(CCNCCc1ccc(O)c2[nH]c(=O)sc12)C1CCCCC1 [Example 35, N-Cyclohexyl-N-(2-{[2-(4-hydroxy-2-oxo-2,3-dihydro-1,3-benzothiazol-7-yl)ethyl]amino}ethyl)-N^3-[2-(2-thienyl)ethyl]-β-alaninamide bis-trifluoroacetic acid salt] |  |
| 79.4 | O=C(CCNCCc1cccc(Cl)c1)N(CCNCCc1ccc(O)c2[nH]c(=O)sc12)C1CCCCCC1 [Example 50, N^3-[2-(3-Chlorophenyl)ethyl]-N^1-cycloheptyl-N^1-(2-{[2-(4-hydroxy-2-oxo-2,3-dihydro-1,3-benzothiazol-7-yl)ethyl]amino}ethyl)-β-alaninamide bis-trifluoroacetic acid salt] |  |
| 251 | O=C(CCNCCc1cccc(F)c1F)N(CCNCCc1ccc(O)c2[nH]c(=O)sc12)C1CCCCCC1 [Example 56, N^1-Cycloheptyl-N^3-[2-(2,3-difluorophenyl)ethyl]-N^1-(2-{[2-(4-hydroxy-2-oxo-2,3-dihydro-1,3-benzothiazol-7-yl)ethyl]amino}ethyl)-β-alaninamide bis-trifluoroacetic acid salt] |  |
| 50.1 | O=C(CCNCCc1ccccc1Cl)N(CCNCCc1ccc(O)c2[nH]c(=O)sc12)C1CCCCC1 [Example 17, N^3-[2-(2-Chlorophenyl)ethyl]-N-cyclohexyl-N-(2-{[2-(4-hydroxy-2-oxo-2,3-dihydro-1,3-benzothiazol-7-yl)ethyl]amino}ethyl)-β-alaninamide bis-trifluoroacetic salt] |  |
| 316 | O=C(CCNCCc1ccc(Cl)cc1)N(CCNCCc1ccc(O)c2[nH]c(=O)sc12)C1CCCC1 [Example 28, N^3-[2-(4-Chlorophenyl)ethyl]-N-cyclopentyl-N-(2-{[2-(4-hydroxy-2-oxo-2,3-dihydro-1,3-benzothiazol-7-yl)ethyl]amino}ethyl)-β-alaninamide bis-trifluoroacetic acid salt] |  |
| 63.1 | O=C(CCNCCc1cc(F)ccc1F)N(CCNCCc1ccc(O)c2[nH]c(=O)sc12)C1CCCCC1 [Example 79, N^1-Cyclohexyl-N^3-[2-(2,5-difluorophenyl)ethyl]-N^1-(2-{[2-(4-hydroxy-2-oxo-2,3-dihydro-1,3-benzothiazol-7-yl)ethyl]amino}ethyl)-β-alaninamide bis-trifluoroacetic acid salt] |  |
